From patent publication US20060211705A1, “'N-(2-chloro-6-methylphenyl)-2-[[6-[4-(2-hydroxyethyl)-1-piperazinyl]-2-methyl-4-pyrimidinyl]amino]-5-thiazolecarboxamides metabolites” (priority 2005, published 2006)

What was measured:
[1] = In vivo metabolism of compound of formula I in bile duct cannulated rats by LC/UV/MSn; set-up: species or system rat; conditions: BDC rats; for Relative abundance in gastrointestinal samples from rats dosed orally: 10 mg/kg oral, GIT at 9 hour; for Relative abundance in rat bile / Relative abundance in rat urine: 10 mg/kg; for Relative abundance in rat bile: bile over 9 hour; for Relative abundance in rat urine: urine over 9 hour
Method: The in vivo metabolism of compound of formula I was investigated in bile duct cannulated rats (n=2), following a single dose of 10 mg/kg either intravenously (IV) as a 10 minute infusion or orally by gavage. The vehicle used was 50 mM sodium acetate buffer, pH 4.6. The rats were fasted overnight and for the duration of the study. Urine and bile were collected over a 9 hour period. The gastrointestinal tract (GIT) and feces were collected at the end of the 9 hour study period. GIT and feces were homogenized with 3 volumes of water and 3 volumes of acetonitrile per volume of GIT/feces. Blood samples were collected at 15, 30 minutes, 1, 2, 4, 6 and 9 hours after intravenous and oral dosing in tubes containing EDTA and plasma was prepared by centrifugation. Samples were stored at −20° C. until analysis.
Plasma samples were pooled across collection intervals and treated with two volumes of acetonitrile. After centrifugation, the supernatent was removed and evaporated to dryness. The residues were then redissolved in 300 μl of methanol:water (1:1). Bile and urine samples from the BDC rat study were pooled across collection intervals. Bile samples were purified by sep-pak purification on C8 cartridges. The samples were evaporated and the residue was redissolved in 300 μl of methanol:water (1:1). Urine samples were diluted one to one with methanol and analyzed without further purification. All samples were analyzed by LC/UV/MS^n.
The HPLC system consisted of Waters alliance 2690 separation module. The column used was a Phenomenex Curosil PFP, 4.6 mm×150 mm, 5 μ particles with a flow rate of 1.0 mL/min. The mobile phase consisted of 95/5 v/v Water/Methanol containing 0.1% formic acid (Solvent A) and Methanol (Solvent B). The initial mobile phase composition was 20% Solvent B. After sample injection, this composition was held for 0.5 minute at initial conditions then ramped to 80% solvent B up to 24.5 min, and ramped to 100% solvent B up to 28 minutes. The mobile phase was then returned to initial conditions and the column re-equilibrated for 5 minutes. Total analysis time was 33 minutes.
The HPLC was interfaced to a Finnigan's Photo Diode Array Detector (PDA: UV6000) in tandem with Finnigan Deca XP ion trap mass spectrometer. Deca XP mass spectrometer was equipped with an Electrospray ionization source (ESI) interface. The source was operated in a positive ion mode with capillary temperature of 350° C. and source voltage 5.0 kV. The UV profile was extracted at […] of 254 nm. UHP (Ultra High Purity) nitrogen was used as sheath and auxiliary gas. The normalized collision energy was set at 50% and the isolation width was 3.0 amu. Multiple MS experiments were performed in a single chromatographic run with the following data dependent settings: […]

[2] = Radioactive metabolites in plasma, urine and feces after single oral dose of [14C] compound (I) to rats; assay type: in vivo, Sprague-Dawley rat; conditions: for % Distribution of radioactive metabolites in pooled plasma, Rat (4 h): oral 15 mg/kg [14C] compound (I), plasma 4 h; for Metabolites in Feces (0-168 hr), Rat, % Dose / Metabolites in Feces (0-168 hr), Rat, % Rad (% of total radioactivity in sample) / Metabolites in Urine (0-168 hr), Rat, % Dose / Metabolites in Urine (0-168 hr), Rat, % Rad (% of total radioactivity in sample): oral 15 mg/kg; for Metabolites in Feces (0-168 hr), Rat, % Dose / Metabolites in Feces (0-168 hr), Rat, % Rad (% of total radioactivity in sample): pooled fecal extracts 0-168 hr; for Metabolites in Urine (0-168 hr), Rat, % Dose / Metabolites in Urine (0-168 hr), Rat, % Rad (% of total radioactivity in sample): pooled urine 0-168 hr
Method: Plasma samples were segregated by collection time and equal volumes of individual plasma samples at a given time point were combined for biotransformation profiling.
The C-14 label was on the carbon-2 of the thiazole ring.
HPLC was performed on an Agilent 1100™ system equipped with binary pumps, autoinjector, and a column heater. A Phenomenex Synergy Polar-RP® column (4.6×250 mm, 5 micron) was used for metabolite separation. All HPLC analyses were performed at 1 mL/min flow rate at 35° C. The HPLC mobile phase consisted of (A) water with 0.1% formic acid and (B) acetonitrile with 0.1% formic acid.
Each fraction of column eluent was evaporated to dryness on a Savant Speed-Vac (Savant Instruments Inc., Holbrook, N.Y.) and counted for radioactivity with a Packard Top Count® microplate scintillation analyzer (Packard Biosciences, Downers Grove, Ill.).
The volumes of pooled plasma processed for HPLC analysis for rat, monkey and human ranged between 1.5 and 8.0 mL. Pooled plasma samples were extracted with methanol/acetonitrile (1:1) at a ratio of 2 volumes solvent to 1 volume of plasma. The mixtures were vortex mixed, sonicated for 5 min, and centrifuged at 3500 rpm for 10 min. The supernatants were transferred into new tubes. The remaining pellets were extracted two more times with 3 mL of methanol/acetonitrile (1:1). The supernatants were combined and evaporated to dryness in a Savant Speed-Vac (Savant Instruments, Inc., Holbrook, N.Y.). The residue was reconstituted into 0.35 to 0.45 mL of 30% acetonitrile in water, vortex mixed and centrifuged at 13000 rpm for 5 min (American Scientific Products Biofuge A centrifuge, Heraeus Sepatech GmbH, Germany). The supernatant was injected onto the HPLC for profiling. Aliquots of the reconstituted samples (30 μl) were also counted on the liquid scintillation counter (LSC) to determine the recovery of radioactivity.
The pooled monkey and human urine samples (3-5 mL) were extracted with 2 volumes of acetonitrile/acetone (1:1). The mixtures were vortex mixed, sonicated and centrifuged at 3500 rpm for 10 min. The supernatants were evaporated to dryness. The residue was suspended in 0.3-0.5 mL of 30% acetonitrile in water and centrifuged at 13000 rpm for 5 min. Aliquots of the supernatants were injected onto the HPLC or analyzed by LSC for radioactivity recovery. Pooled urine samples from BDC monkeys and rats were centrifuged at 13000 rpm for 10 min and injected onto the HPLC for profiling without further treatment.
The amount of fecal homogenate used for analysis was 0.20, 0.19 and 0.51 g for rat, monkey and human, respectively. Each pooled fecal homogenate was extracted by addition of 3 volumes of acetonitrile/methanol (1:1) to 1 volume of fecal homogenate and mixed on a vortex mixer. The mixture was sonicated for 5 min and then centrifuged at 3000 rpm for 10 min. The supernatants were removed and saved. The extraction was repeated two additional times and the supernatants were combined and evaporated to dryness on a Savant Speed-Vac. […] An aliquot of the supernatant was injected onto the HPLC or analyzed by LSC for radioactivity recovery.
The LC/MS system used for analysis of plasma, urine, bile, and fecal samples consisted of an Agilent 1100™ HPLC system connected to a Finnigan LCQ-DecaXP mass spectrometer. Samples were analyzed using positive electrospray ionization. The capillary temperature used for analysis was 320° C., and the nitrogen gas flow rate, spray current, and voltages were adjusted to give maximum sensitivity. The HPLC conditions were described in section 3.3.1.
Counts per min (CPM) were determined on a Packard TopCount NXT microplate scintillation and luminescence counter. For each injection, the average CPM value (2-4 CPM) obtained from fractions between 2-3 min (column void) in the chromatogram was subtracted from the CPM value of each fraction. Biotransformation profiles were prepared by plotting the background subtracted CPM values against time-after-injection.

Structure (SMILES)	Relative abundance in gastrointestinal samples from rats dosed orally [1]	% Distribution of radioactive metabolites in pooled plasma, Rat (4 h) [2] [%]	Metabolites in Feces (0-168 hr), Rat, % Dose [2] [%]	Metabolites in Feces (0-168 hr), Rat, % Rad (% of total radioactivity in sample) [2] [%]	Metabolites in Urine (0-168 hr), Rat, % Dose [2] [%]	Metabolites in Urine (0-168 hr), Rat, % Rad (% of total radioactivity in sample) [2] [%]	Relative abundance in rat bile [1]	Relative abundance in rat urine [1]	Relative abundance in rat plasma ([1]; 10 mg/kg IV or oral, pooled plasma, LC/UV/MSn)
Cc1nc(Nc2ncc(C(=O)Nc3c(C)cccc3Cl)s2)cc(N2CCNCC2)n1 [M4 (II)]	trace amounts	2.6	1.9	2.5	0.3	4.4	–	–	–
Cc1nc(Nc2ncc(C(=O)Nc3c(C)cc(O)cc3Cl)s2)cc(N2CCN(CCO)CC2)n1 [M20 (V)]	–	–	7.6	9.9	0.6	9.9	–	–	–
Cc1nc(Nc2ncc(C(=O)Nc3c(Cl)cccc3CO)s2)cc(N2CCN(CCO)CC2)n1 [M24 (VI), N-(2-chloro-6-(hydroxymethyl)phenyl)-2-(6-(4-(2-hydroxyethyl)piperazin-1-yl)-2-methylpyrimidin-4-ylamino)thiazole-5-carboxamide]	–	–	3.1	4.0	–	–	–	–	–
Cc1nc(Nc2ncc(C(=O)Nc3c(C)cccc3Cl)s2)cc(N2CCN(CCO)CC2)n1 [Parent (I), N-(2-Chloro-6-methylphenyl)-2-[[6-[4-(2-hydroxyethyl)-1-piperazinyl]-2-methyl-4-pyrimidinyl]amino]-5-thiazolecarboxamide]	major drug related peak	52.8	41.6	54.5	0.7	11.6	–	trace amounts	major peak

The remaining lines, values ahead:

Relative abundance in gastrointestinal samples from rats dosed orally [1]	% Distribution of radioactive metabolites in pooled plasma, Rat (4 h) [2] [%]	Metabolites in Feces (0-168 hr), Rat, % Dose [2] [%]	Metabolites in Feces (0-168 hr), Rat, % Rad (% of total radioactivity in sample) [2] [%]	Metabolites in Urine (0-168 hr), Rat, % Dose [2] [%]	Metabolites in Urine (0-168 hr), Rat, % Rad (% of total radioactivity in sample) [2] [%]	Relative abundance in rat bile [1]	Relative abundance in rat urine [1]	Relative abundance in rat plasma ([1]; 10 mg/kg IV or oral, pooled plasma, LC/UV/MSn)	Structure (SMILES)
–	18.7	–	–	3.4	52.4	major metabolites	major metabolite	–	Cc1nc(Nc2ncc(C(=O)Nc3c(C)cccc3Cl)s2)cc(N2CC[N+]([O-])(CCO)CC2)n1 [M5 (III)]
trace amounts	2.2	13.2	17.3	0.4	6.5	major metabolites	–	–	Cc1nc(Nc2ncc(C(=O)Nc3c(C)cccc3Cl)s2)cc(N2CCN(CC(=O)O)CC2)n1 [M6 (IV), 2-(4-(6-(5-((2-Chloro-6-methylphenyl)carbamoyl)thiazol-2-ylamino)-2-methylpyrimidin-4-yl)piperazin-1-yl)acetic acid]
